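96-well plates; 48 h exposure; 5 concentrations. Endpoints by linear interpolation between flanking doses. Not reached: highest tested concentration assigned. Here, GI50 denotes the concentration required for 50% inhibition of growth.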 Active and inactive are the calls of the source. No stated cut-off is given here; in the data, active = GI50 up to about 1.1 µM and inactive = higher.
Key:
Assay in all cases: inhibition of tumour cell growth, NCI panel, 48 h
[1] = tested on: COLO 205
[2] = tested on: DU-145
[3] = tested on: K562
[4] = tested on: M14
[5] = tested on: MDA-MB-435
[6] = tested on: NCI-H460
[7] = tested on: NCI/ADR-RES
[8] = tested on: PC-3
[9] = tested on: SF-539
[10] = tested on: SK-MEL-5
[11] = tested on: SK-OV-3
[12] = tested on: SN12C
[13] = tested on: SNB-75
[14] = tested on: SW-620
[15] = tested on: TK-10
[16] = tested on: U-251
[17] = tested on: UACC-257
[18] = tested on: Hs-578T
[19] = tested on: LOX IMVI
[20] = tested on: OVCAR-4

Row | SMILES | GI50 [1] | GI50 [2] | GI50 [3] | GI50 [4] | GI50 [5] | GI50 [6] | GI50 [7] | GI50 [8] | GI50 [9] | GI50 [10] | GI50 [11] | GI50 [12] | GI50 [13] | GI50 [14] | GI50 [15] | GI50 [16] | GI50 [17] | GI50 [18] | GI50 [19] | GI50 [20]
1 | COC1C(OC(N)=O)C(O)C(Oc2ccc3c(O)c(NC(=O)c4ccc(O)c(CC=C(C)C)c4)c(=O)oc3c2C)OC1(C)C (stereo unspecified) | > 100 µM (inactive) | > 100 µM (inactive) | > 100 µM (inactive) | > 100 µM (inactive) | 71.8 µM (inactive) | 62.2 µM (inactive) | > 100 µM (inactive) | > 100 µM (inactive) | > 100 µM (inactive) | > 100 µM (inactive) | > 100 µM (inactive) | > 100 µM (inactive) | > 100 µM (inactive) | > 100 µM (inactive) | > 10 µM (inactive) | 99.5 µM (inactive) | > 100 µM (inactive) | – | – | –
2 | OCCOCCN1CCN(CCCN2c3ccccc3Sc3ccc(C(F)(F)F)cc32)CC1 | 1.75 µM (inactive) | 14.2 µM (inactive) | 2.79 µM (inactive) | 2.65 µM (inactive) | 11.1 µM (inactive) | 9.95 µM (inactive) | – | 15.6 µM (inactive) | 12.4 µM (inactive) | 3.22 µM (inactive) | 19.5 µM (inactive) | 13.6 µM (inactive) | 2.39 µM (inactive) | 15.5 µM (inactive) | 11.7 µM (inactive) | 12.3 µM (inactive) | 5.15 µM (inactive) | 11.9 µM (inactive) | 3.97 µM (inactive) | 15.7 µM (inactive)
3 | Cc1ccc(C2CC(=O)CC(c3ccc(C)cc3)C23C(=O)NC(=O)NC3=O)cc1 (stereo unspecified) | > 100 µM (inactive) | > 100 µM (inactive) | 40.4 µM (inactive) | > 100 µM (inactive) | > 100 µM (inactive) | > 100 µM (inactive) | > 100 µM (inactive) | > 100 µM (inactive) | > 100 µM (inactive) | > 100 µM (inactive) | – | > 100 µM (inactive) | > 100 µM (inactive) | > 100 µM (inactive) | > 100 µM (inactive) | > 100 µM (inactive) | > 100 µM (inactive) | – | > 100 µM (inactive) | 71.1 µM (inactive)
4 | NS(=O)(=O)c1ccc(C(=O)O)cc1 [CARZENIDE] | > 100 µM (inactive) | > 100 µM (inactive) | > 100 µM (inactive) | > 100 µM (inactive) | > 100 µM (inactive) | – | > 100 µM (inactive) | > 100 µM (inactive) | – | > 100 µM (inactive) | > 100 µM (inactive) | > 100 µM (inactive) | – | > 100 µM (inactive) | > 100 µM (inactive) | > 100 µM (inactive) | – | > 100 µM (inactive) | > 100 µM (inactive) | > 100 µM (inactive)
5 | CC(C)(C)NNc1c([N+](=O)[O-])cnn(-c2ccccc2)c1=O | 4.63 µM (inactive) | 12.8 µM (inactive) | 0.942 µM (active) | 2.17 µM (inactive) | 1.81 µM (inactive) | 7.36 µM (inactive) | – | 1.83 µM (inactive) | 13.2 µM (inactive) | 4.51 µM (inactive) | 9.02 µM (inactive) | 3.14 µM (inactive) | 9.86 µM (inactive) | 1.76 µM (inactive) | 22 µM (inactive) | 3.2 µM (inactive) | 4.6 µM (inactive) | 7.76 µM (inactive) | 1.79 µM (inactive) | 3.59 µM (inactive)
6 | CC12CC3CC/C(=N\O)C(C1)C3(N1CCOCC1)C/C2=N/O (stereo unspecified) | > 100 µM (inactive) | > 100 µM (inactive) | > 100 µM (inactive) | > 100 µM (inactive) | > 100 µM (inactive) | > 100 µM (inactive) | > 100 µM (inactive) | > 100 µM (inactive) | > 100 µM (inactive) | > 100 µM (inactive) | > 100 µM (inactive) | > 100 µM (inactive) | 25.1 µM (inactive) | > 100 µM (inactive) | – | > 100 µM (inactive) | > 100 µM (inactive) | – | > 100 µM (inactive) | > 100 µM (inactive)
7 | O=c1c(-c2ccccc2)nnc2n(Cc3ccccc3)c3ccccc3n12 | > 100 µM (inactive) | > 100 µM (inactive) | – | > 100 µM (inactive) | > 100 µM (inactive) | > 100 µM (inactive) | > 100 µM (inactive) | – | 94.8 µM (inactive) | > 100 µM (inactive) | – | > 100 µM (inactive) | > 100 µM (inactive) | > 100 µM (inactive) | > 100 µM (inactive) | > 100 µM (inactive) | > 100 µM (inactive) | > 100 µM (inactive) | > 100 µM (inactive) | > 100 µM (inactive)
8 | SC1=NC2=C(CSC/C2=C\c2ccc(Cl)cc2)C(c2ccc(Cl)cc2)N1 (stereo unspecified) | 17.3 µM (inactive) | 39.4 µM (inactive) | 28.6 µM (inactive) | – | – | 31.4 µM (inactive) | 38.1 µM (inactive) | 31.3 µM (inactive) | – | 19.1 µM (inactive) | 55.8 µM (inactive) | 33.2 µM (inactive) | – | 41.3 µM (inactive) | 36.6 µM (inactive) | 36.8 µM (inactive) | 32 µM (inactive) | 45.3 µM (inactive) | 27 µM (inactive) | 42.5 µM (inactive)
9 | CCOC(=O)/C(=C\NC(C)(C)CO)c1nc2ccccc2[nH]1 | 58.9 µM (inactive) | > 100 µM (inactive) | 75 µM (inactive) | > 100 µM (inactive) | > 100 µM (inactive) | 36.1 µM (inactive) | 79.6 µM (inactive) | – | > 100 µM (inactive) | 26.7 µM (inactive) | > 100 µM (inactive) | > 100 µM (inactive) | > 100 µM (inactive) | > 100 µM (inactive) | 63.8 µM (inactive) | – | > 100 µM (inactive) | 34.4 µM (inactive) | > 100 µM (inactive) | 94 µM (inactive)
10 | CCCCNC(=S)Nc1nc(C(=O)NNS(=O)(=O)c2ccccc2)cs1 | 17.9 µM (inactive) | 35.5 µM (inactive) | 49.1 µM (inactive) | 40.1 µM (inactive) | 21.4 µM (inactive) | – | 60.3 µM (inactive) | 29 µM (inactive) | 33.6 µM (inactive) | 17 µM (inactive) | 36.6 µM (inactive) | 25.6 µM (inactive) | 35.6 µM (inactive) | – | 36 µM (inactive) | 39.5 µM (inactive) | 22.9 µM (inactive) | – | 19.4 µM (inactive) | –
11 | CCOP(=O)(OCC)/C(C#N)=C/c1cn(C)cn1 | > 100 µM (inactive) | – | > 100 µM (inactive) | > 100 µM (inactive) | > 100 µM (inactive) | > 100 µM (inactive) | > 100 µM (inactive) | > 100 µM (inactive) | > 100 µM (inactive) | > 10 µM (inactive) | > 100 µM (inactive) | > 100 µM (inactive) | > 100 µM (inactive) | > 100 µM (inactive) | > 100 µM (inactive) | > 100 µM (inactive) | > 100 µM (inactive) | – | – | > 100 µM (inactive)

Reference: ChEMBL document CHEMBL1201862, “PubChem BioAssay data set” (2004)
